Type in all cases: cell-based
In one experiment the test system is Pseudomonas aeruginosa. The experiment is described as follows: Growth of Pseudomonas aeruginosa in the presence of furanones, alone or with a cell-permeabilising agent. To be noted: for prevention of growth of P. aeruginosa (ranking): furanone 10 μg/ml with EDTA 0.02%. Here is the method: Ten furanones (compounds 2, 3, 19, 30, 45, 55, 56, 24/25, 26/27 and 33/34) (see Table 2) were tested against growth of Gram negative bacteria in a combination treatment using a cell permeabilising agent (Polymyxin B and EDTA).
Different furanone compounds under test were applied at 10 μg/ml (concentration of stock solution of furanone compound or mixture of compounds was 2 mg/ml) and polymyxin B was employed at concentrations which ranged from 0.3-1 μg/ml (stock solution was 10 mg/ml).
In addition, EDTA which also affects the permeability of the cell membrane was tested against growth of P. aeruginosa in combination with the different furanones. EDTA was added at a concentration of 0.02%. […] It is possible that they differently allow for different furanones to penetrate the cell membrane.
Growth of Pseudomonas aeruginosa in the presence of citric acid, toluene, Tween 80 and two different quaternary ammonium compounds was further investigated. The tested furanones was furanone 30 and 34 at 10 μg/ml (concentration of stock solution of furanone compound was 10 mg/ml). The used cell-permeability agents were employed at concentrations which ranged from 0.35-0.001%.

The test system of the next experiment is Candida albicans. Kind of experiment: Growth of Candida albicans in the presence of furanone 57 with or without EDTA. Here is the method: The yeast, Candida albicans, was tested in the presence of furanone 57 at 250 ng/ml. […] In combination with 0.01% EDTA the growth of the cells was inhibited for at least 32 hrs.
A further experiment concerns Escherichia coli. Kind of experiment: Growth of Escherichia coli in the presence of polymyxin B and furanones. The conditions noted are these: furanone 10 μg/ml with polymyxin B 0.3-1 μg/ml. Here is the method: Growth of Gram negative bacteria is not generally affected by furanone compounds alone. […] In order to explore this concept, the antibiotic polymyxin B was included in the initial round of experiments (see FIGS. 2, 3 and 4) involving the bacteria Escherichia coli, Burkholdera cepacia and Pseudomonas aeruginosa. […] Different furanone compounds under test were applied at 10 μg/ml (concentration of stock solution of furanone compound or mixture of compounds was 2 mg/ml) and polymyxin B was employed at concentrations which ranged from 0.3-1 μg/ml (stock solution was 10 mg/ml).

The next experiment has as its system Corynebacterium jeikeium. Kind of experiment: Growth of Corynebacterium jeikeium in the presence of furanone 2 and EDTA. The conditions noted are these: compound 100 μg/ml in combination with EDTA 0.02%. Here is the method: Moreover, the growth of the Gram-positive bacteria, Corynebacterium jeikeium, was inhibited by compound 2 (100 μg/ml) in combination with EDTA (0.02%). The lagphase of growth was prolonged for 20 hr.

Where [1] appears, read: furanone 10 μg/ml in combination with citric acid.

`O=C1C=C/C(=C/Br)O1` [Compound 56]: the “prevention of growth of P. aeruginosa (ranking)” value with Pseudomonas aeruginosa is “most effective compounds in preventing growth”.
As to `O=C1C=C(Br)/C(=C/Br)O1` [Compound 30], the “prolongation of lag phase of growth of P. aeruginosa (in words)” value in the experiment with Pseudomonas aeruginosa (setting [1]) is recorded as “also prolonged the lag phase of growth however not as strongly as compound 34”. Moreover, in the experiment with Pseudomonas aeruginosa, the “prevention of growth of P. aeruginosa (ranking)” value is given as “most effective compounds in preventing growth”. Further, the “growth of P. aeruginosa” value is given as “slight growth inhibition” in the experiment on Pseudomonas aeruginosa (furanone 10 μg/ml with Tween 80), “inhibited the growth of P. aeruginosa” with Pseudomonas aeruginosa (furanone 10 μg/ml with didecyldimethylammonium bromide) and “inhibited the growth of P. aeruginosa” in the experiment with Pseudomonas aeruginosa (furanone 10 μg/ml with tetrabutylammoniumhydrogen sulfate (slightly more active of the two quaternary ammonium compounds)). In the experiment on Pseudomonas aeruginosa (furanone 10 μg/ml with polymyxin B 0.3-1 μg/ml), the “activity against P. aeruginosa (ranking)” value is “most active compound”.
Consider `CCCCCC(F)C1=C(Br)/C(=C/Br)OC1=O` (centres unmarked) [Compound 57], for which the “duration of inhibition of growth of C. albicans cells” value in the experiment with Candida albicans (compound 250 ng/ml alone) was 24 h; in the experiment on Candida albicans (compound 250 ng/ml in combination with 0.01% EDTA), “at least 32 hrs”.
With `CCCCC1=C(Br)C(=C(Br)Br)OC1=O` [Compound 2], the “time period of inhibition of growth of E. coli” value in the experiment with Escherichia coli was found to be 8 h. In the experiment with Corynebacterium jeikeium, the “growth of Corynebacterium jeikeium” value was “inhibited” and the “prolongation of lag phase of growth of Corynebacterium jeikeium” value came out at 20 h.
Take `CCCC(F)C1=C(Br)/C(=C/Br)OC1=O` (centres unmarked) [Compound 45]: the “time period of inhibition of growth of E. coli” value in the experiment with Escherichia coli is 8 h.
As for `CCCCCC(Br)C1=CC(=C(Br)Br)OC1=O` (centres unmarked) [Compound 34], the “prolongation of lag phase of growth of P. aeruginosa” value in the experiment with Pseudomonas aeruginosa (setting [1]) is reported as “approximately 3 hours”.

The values are drawn from patent publication US20030198692A1, “Microbial inhibitory compositions” (priority 2000, published 2003).
